From patent US12410185B2, “Compounds targeting mutant calreticulin” (MYELOPRO DIAGNOSTICS AND RESEARCH GmbH, priority 2018, dated 2025)

How the values were obtained:
[1] = tested on: mutant CALR Ba/F3 cell lines; assay: 72 h dose response test, CellTiter-Glo cell viability assay; type: cell-based, mouse; details: 72 h dose response test
[2] = tested on: UT-7-TPO mutant cell lines; assay: as above; type: cell-based; details: UT-7-TPO cell lines, mutant vs wild-type
Source text: Among 140.000 structures, a list of compounds with the highest binding energy and specificity towards calreticulin was generated. Relying on compounds that were either commercially available or available from the DTP Databases of the National Cancer Institute (NCI), a docking compound library including 41 compounds was assembled, […] CALR cell lines (FIGS. 5 and 6). […] Two hits were identified as preferentially inhibiting mutant CALR cell line growth. […] Therefore, hematoxylin and derivatives thereof were used for further testing.

CALR mutant cell lines = assay: cells; details: 72 h, read-out: IC50 in mutant cell lines
Protocol: (§1) Ba/F3 and UT-7-TPO were plated 5.000 cells/well and 16.000 cells/well into 96-well plates with the desirable concentrations of compounds or cytokines added to a total volume of 100 ul. 72 hours later, the CellTiter-Glo luminescent Cell Viability Assay (Promega) was used to determine the cell viability. The luminescent signal was detected by a VICTOR Multilabel Plate Reader (PerkinElmer). Dose response data was analyzed by Graphpad Prism 7.0.
(§2) To further explore the chemical space of the compound, a few hematoxylin analogues were also tested (FIGS. 15 to 17). […] The compounds Protosappanin B (A-4) and RJ002 (B-2) were also tested. […] As a comparison, the clinically used chemotherapeutic drugs hydroxyurea and ruxolitinib were also tested in the cell models.

CALR wild-type cell line = assay: 72 h dose response of hematoxylin, analogues and control compounds; type: cell-based; details: 72 h assay; read-out: IC50 in wild-type cell line
Protocol: as §1, §2

mutant calreticulin [3] = molecular target: T1, mutant calreticulin (Mus musculus, UniProt P14211); assay: Western blot analysis of Ba/F3-MPL cell lines; type: cell-based; details: time-course
T1 construct: endogenous in cells; host or cells: Ba/F3-MPL CALR WT/del79 (heterozygous) and CALR del37/del37 (homozygous) cell lines and their hematoxylin-resistant clones
T1 sequence (P14211 with tags, fused parts or gaps, stated change not applied): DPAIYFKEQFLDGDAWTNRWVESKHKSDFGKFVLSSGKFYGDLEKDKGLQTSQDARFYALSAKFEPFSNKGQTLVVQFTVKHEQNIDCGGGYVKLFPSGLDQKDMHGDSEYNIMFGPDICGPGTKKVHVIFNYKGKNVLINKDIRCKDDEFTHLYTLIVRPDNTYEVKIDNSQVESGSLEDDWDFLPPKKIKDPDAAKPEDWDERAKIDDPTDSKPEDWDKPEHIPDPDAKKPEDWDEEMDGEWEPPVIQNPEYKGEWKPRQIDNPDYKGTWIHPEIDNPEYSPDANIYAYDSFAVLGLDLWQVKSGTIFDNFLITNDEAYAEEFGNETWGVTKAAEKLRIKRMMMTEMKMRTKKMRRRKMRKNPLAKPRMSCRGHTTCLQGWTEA
Protocol: (§3) 2 million Ba/F3-MPL CALR WT or mutant cells were treated with hematoxylin or the equivalent volume of DMSO in a total volume of 15 ml of RPMI media in T75 flasks (Thermal Fisher Scientific). Cells were collected and washed with PBS before being lysed in whole cell lysis buffer containing 20 mM HEPES, 20% glycerol, 50 mM KCl, 400 mM NaCl, 1 mM EDTA, 1 mM DTT, 5 mM Na orthovanadate, 0.5% NP40, 0.1% Tween 20, supplemented with cOmplete™, Mini, EDTA-free Protease Inhibitor Cocktail (Sigma) and PhosSTOP™ (Sigma). Samples were rotated at 4° C. for 20 min prior to centrifugation at […] for 20 min. The soluble fraction of the sample was collected. Protein concentration was quantified by the Bio-Rad Protein Assay (Bio-Rad) according to the manufacturer's instructions and measured by a SpectraMax Microplate Reader (Molecular Devices). Equal amounts of protein were loaded for 8% or 10% SDS-polyacrylamide gel electrophoresis prior to transfer to Amersham™ Protran® nitrocellulose membranes at 35V, 4° C. overnight. Membranes were then blocked by 5% bovine serum albumin fraction V (Sigma) or milk. Mutant calreticulin was detected by a polyclonal rabbit antibody against the mutant specific C-terminal peptide (Myelopro). The other primary antibodies used were as follows: Calregulin Antibody (F-4)(sc-373863 Santa Cruz), Anti-HSC70(B-6) (J2212, Santa Cruz), Anti-Stat5 (N20)(L1112, Santa Cruz), anti-pYSTAT5 (Tyr694)(71-6900, Life Technologies), anti-TPOR/cMpl (#6944, Millipore), Cleaved PARP (Asp214) (#9548, Cell Signaling). HRP-linked anti-mouse and anti-rabbit antibodies (NA931/4, GE Healthcare Life Sciences) were used as secondary antibodies. Clarity™ Western ECL Blotting Substrates (Biorad) were used for the chemiluminescence detection method.
(§4) To confirm that the cytotoxic selectivity of hematoxylin in CALR mutant cell lines is due to a specific effect on mutant calreticulin, Ba/F3-MPL CALR WT and mutant cell lines were treated with the compound for 24 hours. […]

mutant calreticulin [4] = assay: Western blot analysis of Ba/F3-MPL cell lines; type: cell-based, mouse; details: 20 uM, 24 hours, heterozygous and homozygous mutant cell lines
Protocol: as §3, §4

wild-type calreticulin = molecular target: T2, wild-type calreticulin (Mus musculus, UniProt P14211); assay: Western blot analysis of Ba/F3-MPL cell lines; type: cell-based; details: 20 uM, 24 hours
T2 construct: endogenous in cells; host or cells: Ba/F3-MPL CALR WT and CALR WT/del79 cell lines
T2 sequence (P14211 18-416): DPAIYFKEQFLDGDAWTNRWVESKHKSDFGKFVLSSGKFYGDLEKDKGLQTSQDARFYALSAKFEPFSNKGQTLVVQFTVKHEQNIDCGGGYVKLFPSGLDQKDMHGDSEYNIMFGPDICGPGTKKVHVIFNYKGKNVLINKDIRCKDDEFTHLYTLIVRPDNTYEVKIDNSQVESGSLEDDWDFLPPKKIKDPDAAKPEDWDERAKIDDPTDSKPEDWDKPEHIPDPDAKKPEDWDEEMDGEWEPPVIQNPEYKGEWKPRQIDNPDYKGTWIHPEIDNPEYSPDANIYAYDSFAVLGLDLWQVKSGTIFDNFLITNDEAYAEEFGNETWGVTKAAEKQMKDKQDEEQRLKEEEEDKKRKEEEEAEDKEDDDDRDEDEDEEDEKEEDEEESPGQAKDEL
Protocol: as §3, with “The other primary antibodies used were as follows: Calregulin Antibody (F-4)(sc-373863 Santa Cruz), Anti-HSC70(B-6) (J2212, Santa Cruz), Anti-Stat5 (N20)(L1112, Santa Cruz), anti-pYSTAT5 (Tyr694)(71-6900, Life Technologies), anti-TPOR/cMpl (#6944, Millipore), Cleaved PARP (Asp214) (#9548, Cell Signaling). HRP-linked anti-mouse and anti-rabbit antibodies (NA931/4, GE Healthcare Life Sciences) were used as secondary antibodies. Clarity™ Western ECL Blotting Substrates (Biorad) were used for the chemiluminescence detection method.” left out

PARP cleavage = assay: Western blot time-course, Ba/F3-MPL CALR WT/del79; type: cell-based; details: 8-hour time point
Protocol: as §3, with “The other primary antibodies used were as follows: Calregulin Antibody (F-4)(sc-373863 Santa Cruz), Anti-HSC70(B-6) (J2212, Santa Cruz), Anti-Stat5 (N20)(L1112, Santa Cruz), anti-pYSTAT5 (Tyr694)(71-6900, Life Technologies), anti-TPOR/cMpl (#6944, Millipore), Cleaved PARP (Asp214) (#9548, Cell Signaling). HRP-linked anti-mouse and anti-rabbit antibodies (NA931/4, GE Healthcare Life Sciences) were used as secondary antibodies. Clarity™ Western ECL Blotting Substrates (Biorad) were used for the chemiluminescence detection method.” left out

STAT5 phosphorylation = assay: Western blot time-course, Ba/F3-MPL CALR WT/del79; type: cell-based; details: 8-hour time point
Protocol: as §3, with “The other primary antibodies used were as follows: Calregulin Antibody (F-4)(sc-373863 Santa Cruz), Anti-HSC70(B-6) (J2212, Santa Cruz), Anti-Stat5 (N20)(L1112, Santa Cruz), anti-pYSTAT5 (Tyr694)(71-6900, Life Technologies), anti-TPOR/cMpl (#6944, Millipore), Cleaved PARP (Asp214) (#9548, Cell Signaling). HRP-linked anti-mouse and anti-rabbit antibodies (NA931/4, GE Healthcare Life Sciences) were used as secondary antibodies. Clarity™ Western ECL Blotting Substrates (Biorad) were used for the chemiluminescence detection method.” left out

CALR expression (mRNA) = assay: Real-time PCR analysis of Ba/F3-MPL cell lines; type: cell-based, mouse; details: 20 uM, 24 h
Protocol: FIG. 19: Real-time PCR analysis of Ba/F3-MPL cell lines after a 24 h treatment with hematoxylin. Ba/F3-MPL CALR WT, CALR homozygous mutant del37/del37 cell line were treated with 20 uM hematoxylin or an equivalent amount of DMSO as control for 24 h before cell collection and RNA extraction. **P<0.01; ***P<0.001
1 million cells from each sample were collected and washed with PBS twice. RNA samples were extracted by using the RNeasy Mini Kit (Qiagen). Taqman® Gene Expression Assays (Mm01545399_m1) was used to quantify the expression of CALR, and the real-time PCR reaction was performed using a 7500 Fast Real-Time PCR machine (Applied Biosystems™). Statistical test was calculated by Graphpad Prism 7.0 using the two-tailed Student's t test.

For `Oc1cc2c(cc1O)[C@@H]1c3ccc(O)c(O)c3OC[C@]1(O)C2` [hematoxylin, Hematoxylin], the “reduction of IC50 in mutant CALR Ba/F3 cell lines compared with the wild-type cell line” value [1] was 3-5 fold, the “hypersensitivity of mutant cell lines to the compound” value [2] was “hypersensitivity of mutant cell lines to the compound could be reproduced” and the IC50 (CALR mutant cell lines) was 2.6 µM. The IC50 (CALR wild-type cell line) was 11.1 µM, the “mutant calreticulin and MPL protein level” value (mutant calreticulin [3]; 8-hour time point) was “more drastic reduction” and the “time to start of decrease of mutant calreticulin and MPL” value (mutant calreticulin [3]; Ba/F3-MPL CALR WT/del79) was 4 h. The “mutant calreticulin protein level” value (mutant calreticulin [4]) was “striking down-regulation”, the “wild-type calreticulin protein level” value (wild-type calreticulin; CALR WT cell line) was “not affected” and the “wild-type calreticulin protein level” value (wild-type calreticulin; CALR heterozygous mutant cell line) was “up-regulation”. The “PARP cleavage (apoptotic marker)” value (PARP cleavage) was “upregulation”, the STAT5 phosphorylation (STAT5 phosphorylation) was “decrease” and the “magnitude of change (up-regulation) of wild-type and mutant CALR mRNA expression” value (CALR expression (mRNA)) was “around 1.3 fold”.
